Test results: publication PMC9101373, “Design of DNA Intercalators Based on 4-Carboranyl-1,8-Naphthalimides: Investigation of Their DNA-Binding Ability and Anticancer Activity” (International Journal of Molecular Sciences, 2022)

Experiments:
HepG2 cells = assay: In vitro cytotoxic activity, MTT assay; assay type: cell-based, human; settings: 24 h treatment, read-out: IC50, compound concentration required to inhibit cell growth by 50%
Protocol: The obtained 1,8-naphthalimide–carborane conjugates were investigated for their in vitro antitumor activity by examining their cytotoxic effects using the MTT tetrazolium dye assay against the human cancer cell line HepG2 established from hepatocellular carcinoma. IC50 refers to the drug concentration (µM) required to inhibit cell growth by 50%.
The cytotoxic properties of the synthesized compounds were evaluated using the human hepatocellular carcinoma cell line HepG2 established from hepatocellular carcinoma. The HepG2 cell line was purchased from ECACC (Salisbury, UK). Cells were grown in EMEM medium (Corning®) supplemented with 10% heat-inactivated fetal bovine serum (FBS) (Corning®) and antibiotics (Corning®), at 37 °C in a 5% CO2 atmosphere. Upon reaching 80–90% confluency, cells were detached with the trypsin (Corning®) and transferred into 96-well microplates at a density of 12 × 10^3. After overnight incubation at 37 °C in a humidified atmosphere containing 5% CO2, the cells were treated for the next 24 h with compounds. The stock solution of each compound was prepared in DMSO at 10 mM. The cytotoxicity was evaluated by the MTT assay. […] Subsequently, the medium was aspirated and replaced with 3-(4,5-dimethylthiazol-2-yl)-2,5-diphenyltetrazolium bromide (MTT) dye solution (50 µL, 0.5 mg/mL). After 3 h incubation, the resulting MTT formazan crystals were dissolved in DMSO (100 µL). To ensure the complete dissolution of formazan, the plates were shaken on an orbital microplate shaker at 1000 rpm for 15 min (Thermoshaker NeoLab 7–0055, Bionovo, Legnica, Poland). The optical density of each well was then measured on a VICTOR Nivo multimode plate reader at a wavelength of 570 nm. Each experiment consisted of 6 replications of each concentration, and each experiment was repeated three times independently. The results were calculated as a percentage of control group viability. The IC50 values were determined using a non-linear regression from the plot of % viability against log dose of compounds by using GraphPad Prism 6.0 software (GraphPad, San Diego, CA, USA).

calf thymus DNA (ct-DNA) = assay: Melting temperature (Tm) measurements of ct-DNA, thermal denaturation; assay type: binding; settings: for ΔTm ct-DNA: r = [compound]/[ct-DNA] = 0.3, pH 7.0, 20 mM cacodylate buffer, Tm of ct-DNA alone 74 °C; for effect on thermal stability of ct-DNA (in words): thermal melting experiments
Protocol: The melting temperature (Tm) of DNA is defined as the temperature at which 50% of the DNA is in form of single strands forming randomly coiled structures. DNA melting is measured by the absorbance of UV light (260 nm) by the DNA solution, where the amount of UV light absorbed is proportional to the fraction of non-bonded base pairs. The majority of DNA-binding small molecules known thus far stabilize duplex DNA against heat denaturation. A high, drug-induced increase in the Tm of DNA is generally viewed as an excellent criterion to select DNA ligands and is a common feature of several anticancer drugs such as intercalators (a significant increase in Tm = 3–8 °C is observed for strong intercalation) and alkylators. The reverse situation (destabilization of DNA to facilitate its denaturation) may be an attractive option to identify therapeutic agents acting on the DNA structure.
Our study conducted Tm measurement to estimate the impact of 1,8-naphthalimides bearing the carborane cluster on DNA stabilization (Table 1, Figures S249–S253, ESI).
The measurements were performed by adding aliquots of DMSO stock solution of the tested compounds to the buffer solution (pH 7.0, 20 mM, cacodylate buffer, DMSO content of the final solution = 0.24–0.36%). The Tm curves were collected at r = 0.3 (r = [compound]/[ct-DNA]) to assure the dominant binding mode. Thermal melting curves were determined by following the absorption change at 260 nm as a function of temperature by using a GBC Cintra10 UV–vis spectrometer (Dandenong, Australia) equipped with a GBC Thermocell Peltier Power Supply (Dandenong, Australia) using a 1 cm path length cell. The absorbance of the samples was monitored at 260 nm from 30 to 90 °C (95 °C for compounds 54–61) with a heating rate of 1 °C/min. Tm values are the midpoints or the transition curves determined from the maximum of the first derivative. The ΔTm values were calculated by subtracting the Tm of the free nucleic acid from the Tm of the sample. Every Tm value reported in this study was average at least three measurements. The error in Tm was 0.5 °C.

| Substance | IC50 (HepG2 cells) | ΔTm ct-DNA (calf thymus DNA (ct-DNA)) | effect on thermal stability of ct-DNA (in words) (calf thymus DNA (ct-DNA)) |
| --- | --- | --- | --- |
| N-[2-(Dimethylamino)ethyl]-4-{1-[3-(1,7-dicarba-closo-dodecaborane-1-yl)propyl]-1H-1,2,3-triazol-4-yl}methoxy-1,8-naphthalimide [Compound 18] | 5.8 ± 0.23 µM | 0.37 °C |  |
| N-[2-(Dimethylamino)ethyl]-4-[3-(1,2-dicarba-closo-dodecaborane-1-yl)propoxy]-1,8-naphthalimide [Compound 24] | 11 ± 0.66 µM | 1.33 °C | better DNA stabilization |
| N-[2-(Dimethylamino)ethyl]-4-[3-(1,7-dicarba-closo-dodecaborane-1-yl)propoxy]-1,8-naphthalimide [Compound 26] | 4.89 ± 2.59 µM | 1.33 °C | better DNA stabilization |
| N-[2-(N-Pyrrolidinyl)ethyl]-4-[(2-(3-(1,7-dicarba-closo-dodecaborane-1-yl)propanamido)ethyl)amino]-1,8-naphthalimide [Compound 39] | 9.85 ± 0.59 µM | 1.00 °C |  |
| N-[2-(N-Pyrrolidinyl)ethyl]-4-[(6-(3-(1,2-dicarba-closo-dodecaborane-1-yl)propanamido)hexyl)amino]-1,8-naphthalimide [Compound 42] | 21.1 ± 3.34 µM | 0.67 °C |  |
| 4-[3-(1,7-Dicarba-closo-dodecaborane-1-yl)propoxy]-1,8-naphthalic anhydride [Compound 23] | 109 ± 3.78 µM | −0.33 °C | destabilization |
| N-[2-(Dimethylamino)ethyl]-4-[(6-(3-(1,2-dicarba-closo-dodecaborane-1-yl)propanamido)hexyl)amino]-1,8-naphthalimide [Compound 40] | 12.2 ± 0.44 µM | 0.67 °C |  |
| N-[2-(N-Pyrrolidinyl)ethyl]-4-[3-(1,7-dicarba-closo-dodecaborane-1-yl)propoxy]-1,8-naphthalimide [Compound 27] | 4.07 ± 1.19 µM | 0.33 °C |  |
| N-[2-(Dimethylamino)ethyl]-4-{1-[3-(1,2-dicarba-closo-dodecaborane-1-yl)propyl]-1H-1,2,3-triazol-4-yl}methoxy-1,8-naphthalimide [Compound 16] | 8.17 ± 3.72 µM | 2.00 °C | better DNA stabilization |
| N-[2-(N-Pyrrolidinyl)ethyl]-4-{1-[3-(1,2-dicarba-closo-dodecaborane-1-yl)propyl]-1H-1,2,3-triazol-4-yl}-1,8-naphthalimide [Compound 9] | 29.6 ± 1.89 µM | 0.67 °C |  |
| N-[2-(Dimethylamino)ethyl]-4-{1-[3-(1,7-dicarba-closo-dodecaborane-1-yl)propyl]-1H-1,2,3-triazol-4-yl}-1,8-naphthalimide [Compound 10] | 5.35 ± 1.9 µM | 0.67 °C |  |
| 4-[3-(1,2-Dicarba-closo-dodecaborane-1-yl)propoxy]-1,8-naphthalic anhydride [Compound 22] | 28.7 ± 3.84 µM | −1.00 °C | destabilization |
| 4-{1-[3-(1,2-Dicarba-closo-dodecaborane-1-yl)propyl]-1H-1,2,3-triazol-4-yl}methoxy-1,8-naphthalic anhydride [Compound 14] | 34.1 ± 2.33 µM | 0.33 °C |  |
| N-[2-(Dimethylamino)ethyl]-4-[(6-(3-(1,7-dicarba-closo-dodecaborane-1-yl)propanamido)hexyl)amino]-1,8-naphthalimide [Compound 41] | 11.9 ± 0.92 µM | −1.33 °C | destabilization |
| N-[2-(N-Pyrrolidinyl)ethyl]-4-[3-(1,2-dicarba-closo-dodecaborane-1-yl)propoxy]-1,8-naphthalimide [Compound 25] | 15.2 ± 2.02 µM | 0.33 °C |  |
